# Reference: publication PMC5218480 (PLoS ONE, 2017)
# Test system: MV-4-11 cells
# Experiment: Gene expression microarray analysis (Affymetrix PrimeView) and GSEA
# Type: cell-based, human
# Design: RFU PODN (11730768_x_at) / Fold change /veh PODN (11730768_x_at) / RFU LINC00158 (11744669_a_at) / Fold change /veh LINC00158 (11744669_a_at) / RFU DUSP10 (11751237_a_at) / Fold change /veh DUSP10 (11751237_a_at) / RFU ID3 (11757404_x_at) / Fold change /veh ID3 (11757404_x_at) / RFU PLEKHG5 (11737974_s_at) / Fold change /veh PLEKHG5 (11737974_s_at) / RFU LRRC4B (11730491_at) / Fold change /veh LRRC4B (11730491_at) / RFU GIMAP4 (11747438_a_at) / Fold change /veh GIMAP4 (11747438_a_at) / RFU KRT8 (11758183_x_at) / Fold change /veh KRT8 (11758183_x_at) / RFU CNN1 (11734310_a_at) / Fold change /veh CNN1 (11734310_a_at) / RFU VPS37D (11726825_at) / Fold change /veh VPS37D (11726825_at) / RFU C10orf10 (11716522_x_at) / Fold change /veh C10orf10 (11716522_x_at) / RFU KIR2DL2 /// KIR2DL4 /// KIR2DL5A /// KIR2DL5B /// KIR2DS1 /// KIR2DS2 /// KIR2DS3 /// KIR2DS4 /// KIR3DL3 /// KIR3DL3 /// KIR3DS1 (11738374_at) / Fold change /veh KIR2DL2 /// KIR2DL4 /// KIR2DL5A /// KIR2DL5B /// KIR2DS1 /// KIR2DS2 /// KIR2DS3 /// KIR2DS4 /// KIR3DL3 /// KIR3DL3 /// KIR3DS1 (11738374_at) / RFU C1QL1 (11718748_at) / Fold change /veh C1QL1 (11718748_at) / RFU TMPRSS4 (11747572_a_at) / Fold change /veh TMPRSS4 (11747572_a_at) / RFU HAMP (11756126_x_at) / Fold change /veh HAMP (11756126_x_at) / RFU RNFT2 (11725882_a_at) / Fold change /veh RNFT2 (11725882_a_at) / RFU NR4A2 (11747474_a_at) / Fold change /veh NR4A2 (11747474_a_at) / RFU ABCC12 (11746883_a_at) / Fold change /veh ABCC12 (11746883_a_at) / RFU TMEM136 (11760407_x_at) / Fold change /veh TMEM136 (11760407_x_at) / RFU CLDN22 /// WWC2 (11732394_at) / Fold change /veh CLDN22 /// WWC2 (11732394_at) / RFU HLA-DPB1 (11760878_x_at) / Fold change /veh HLA-DPB1 (11760878_x_at) / RFU SPINT1 (11716480_a_at) / Fold change /veh SPINT1 (11716480_a_at) / RFU GAP43 (11754022_s_at) / Fold change /veh GAP43 (11754022_s_at) / RFU A4GNT (11735810_at) / Fold change /veh A4GNT (11735810_at) / RFU PRB3 (11715151_x_at) / Fold change /veh PRB3 (11715151_x_at) / RFU TUBB4B (11761932_at) / Fold change /veh TUBB4B (11761932_at) / RFU CAPN14 (11732068_a_at) / Fold change /veh CAPN14 (11732068_a_at) / RFU TMCC2 (11721928_a_at) / Fold change /veh TMCC2 (11721928_a_at) / RFU IRGQ (11745062_a_at) / Fold change /veh IRGQ (11745062_a_at) / RFU FAM174B (11720279_a_at) / Fold change /veh FAM174B (11720279_a_at) / RFU TMPRSS4 (11748680_a_at) / Fold change /veh TMPRSS4 (11748680_a_at) / RFU FAM212B (11763350_a_at) / Fold change /veh FAM212B (11763350_a_at) / RFU PLEKHG5 (11743358_a_at) / Fold change /veh PLEKHG5 (11743358_a_at) / RFU ZSCAN30 (11745921_a_at) / Fold change /veh ZSCAN30 (11745921_a_at) / RFU CMKLR1 (11741424_a_at) / Fold change /veh CMKLR1 (11741424_a_at) / RFU LOC101060620 /// MAPK8IP1 (11723275_at) / Fold change /veh LOC101060620 /// MAPK8IP1 (11723275_at) / RFU SPTSSB (11747773_x_at) / Fold change /veh SPTSSB (11747773_x_at) / RFU PRSS12 (11739890_at) / Fold change /veh PRSS12 (11739890_at) / RFU BIN1 (11741810_x_at) / Fold change /veh BIN1 (11741810_x_at) / RFU WNT11 (11732464_a_at) / Fold change /veh WNT11 (11732464_a_at) / RFU C10orf10 (11716521_a_at) / Fold change /veh C10orf10 (11716521_a_at) / RFU C5orf56 (11738089_at) / Fold change /veh C5orf56 (11738089_at) / RFU CYB561 (11721691_x_at) / Fold change /veh CYB561 (11721691_x_at) / RFU ANKRD19P (11752326_a_at) / Fold change /veh ANKRD19P (11752326_a_at) / RFU OR2T12 /// OR2T33 /// OR2T8 (11738714_s_at) / Fold change /veh OR2T12 /// OR2T33 /// OR2T8 (11738714_s_at) / RFU VCAN (11748164_a_at) / Fold change /veh VCAN (11748164_a_at) / RFU JSRP1 (11732532_at) / Fold change /veh JSRP1 (11732532_at) / RFU KRTAP10-11 (11738290_x_at) / Fold change /veh KRTAP10-11 (11738290_x_at) / RFU MYO3A (11730013_a_at) / Fold change /veh MYO3A (11730013_a_at) / RFU EBF3 (11725865_a_at) / Fold change /veh EBF3 (11725865_a_at) / RFU CAMK2N1 (11719241_x_at) / Fold change /veh CAMK2N1 (11719241_x_at) / RFU C5orf56 (11738088_a_at) / Fold change /veh C5orf56 (11738088_a_at) / RFU OLFML3 (11715873_a_at) / Fold change /veh OLFML3 (11715873_a_at) / RFU LOC100653217 /// NTM (11731650_a_at) / Fold change /veh LOC100653217 /// NTM (11731650_a_at) / RFU MAPK11 (11762145_a_at) / Fold change /veh MAPK11 (11762145_a_at) / RFU FIZ1 (11724087_x_at) / Fold change /veh FIZ1 (11724087_x_at) / RFU OASL (11726364_x_at) / Fold change /veh OASL (11726364_x_at) / RFU SOX15 (11748057_x_at) / Fold change /veh SOX15 (11748057_x_at) / RFU CD79A (11719716_a_at) / Fold change /veh CD79A (11719716_a_at) / RFU HIST1H1D (11736915_at) / Fold change /veh HIST1H1D (11736915_at) / RFU CASKIN2 (11723855_a_at) / Fold change /veh CASKIN2 (11723855_a_at) / RFU LOC730098 (11760151_x_at) / Fold change /veh LOC730098 (11760151_x_at) / RFU OR4N2 (11742367_at) / Fold change /veh OR4N2 (11742367_at) / RFU PRRT2 (11749266_a_at) / Fold change /veh PRRT2 (11749266_a_at) / RFU SNX32 (11753110_a_at) / Fold change /veh SNX32 (11753110_a_at) / RFU CDHR5 (11726645_a_at) / Fold change /veh CDHR5 (11726645_a_at) / RFU RCAN1 (11760418_a_at) / Fold change /veh RCAN1 (11760418_a_at) / RFU FAM167A (11723789_a_at) / Fold change /veh FAM167A (11723789_a_at) / RFU FAM26E (11764081_at) / Fold change /veh FAM26E (11764081_at) / RFU ISYNA1 (11749810_s_at) / Fold change /veh ISYNA1 (11749810_s_at) / RFU ACY1 (11761880_at) / Fold change /veh ACY1 (11761880_at) / RFU 11764098_at / Fold change /veh 11764098_at / RFU SAMD14 (11745864_x_at) / Fold change /veh SAMD14 (11745864_x_at) / RFU NPB (11741838_a_at) / Fold change /veh NPB (11741838_a_at) / RFU TMPRSS6 (11731388_a_at) / Fold change /veh TMPRSS6 (11731388_a_at) / RFU KRTAP10-2 (11738614_at) / Fold change /veh KRTAP10-2 (11738614_at) / RFU ARHGAP8 /// PRR5-ARHGAP8 (11727945_x_at) / Fold change /veh ARHGAP8 /// PRR5-ARHGAP8 (11727945_x_at) / RFU KRTAP5-7 /// NADSYN1 (11734609_at) / Fold change /veh KRTAP5-7 /// NADSYN1 (11734609_at) / RFU RASL12 (11751679_a_at) / Fold change /veh RASL12 (11751679_a_at) / RFU CDKN2B (11736163_a_at) / Fold change /veh CDKN2B (11736163_a_at) / RFU PRF1 (11729649_at) / Fold change /veh PRF1 (11729649_at) / RFU, ZNF638 /// ZNF638-IT1 / Fold change vs veh, ZNF638 /// ZNF638-IT1 / RFU, PANK3 / Fold change vs veh, PANK3 / RFU, SH3YL1 / Fold change vs veh, SH3YL1 / RFU, ZEB2 / Fold change vs veh, ZEB2 / RFU, NRIP1 / Fold change vs veh, NRIP1 / RFU, PTTG1IP / Fold change vs veh, PTTG1IP / RFU, CAPN2 / Fold change vs veh, CAPN2 / RFU, MED14 / Fold change vs veh, MED14 / RFU, SNORA58 / Fold change vs veh, SNORA58 / RFU, C1orf63 / Fold change vs veh, C1orf63 / RFU, LRRFIP1 / Fold change vs veh, LRRFIP1 / RFU, NDUFAF7 / Fold change vs veh, NDUFAF7 / RFU, SLC12A2 / Fold change vs veh, SLC12A2 / RFU, IBTK / Fold change vs veh, IBTK / RFU, ESF1 / Fold change vs veh, ESF1 / Fold change vs veh, TMEM50B / RFU, TAOK1 / Fold change vs veh, TAOK1 / RFU, ACBD3 / Fold change vs veh, ACBD3 / RFU, TMA16 / Fold change vs veh, TMA16 / RFU, RWDD3 / Fold change vs veh, RWDD3 / RFU, BCAT1 / Fold change vs veh, BCAT1 / RFU, EDEM3 / Fold change vs veh, EDEM3 / RFU, TMEM33 / Fold change vs veh, TMEM33 / RFU, WDR75 / Fold change vs veh, WDR75 / RFU, AHCTF1 / Fold change vs veh, AHCTF1 / RFU, TFRC / Fold change vs veh, TFRC / RFU, ZDHHC17 / Fold change vs veh, ZDHHC17 / RFU, NOM1 / Fold change vs veh, NOM1 / RFU, ARL8B / Fold change vs veh, ARL8B / RFU, ZBTB11 / Fold change vs veh, ZBTB11 / RFU, TAMM41 / Fold change vs veh, TAMM41 / RFU, KIAA1704 /// LOC100996395 / Fold change vs veh, KIAA1704 /// LOC100996395 / RFU, ING1 / Fold change vs veh, ING1 / RFU, TRMT61B / Fold change vs veh, TRMT61B / RFU, FUBP3 / Fold change vs veh, FUBP3 / RFU, TP53 / Fold change vs veh, TP53 / RFU, TNKS2 / Fold change vs veh, TNKS2 / RFU, ZFP14 / Fold change vs veh, ZFP14 / RFU, ACTR2 / Fold change vs veh, ACTR2 / RFU, PPP3R1 / Fold change vs veh, PPP3R1 / RFU, PIK3R1 / Fold change vs veh, PIK3R1 / RFU, HNRNPA1 / Fold change vs veh, HNRNPA1 / RFU, RNF170 / Fold change vs veh, RNF170 / RFU, ZNF28 / Fold change vs veh, ZNF28 / RFU, RNGTT / Fold change vs veh, RNGTT / RFU, OGT / Fold change vs veh, OGT / RFU, BRD1 / Fold change vs veh, BRD1 / RFU, MARS / Fold change vs veh, MARS / RFU, ZNF655 / Fold change vs veh, ZNF655 / RFU, FAHD1 / Fold change vs veh, FAHD1 / RFU, BDP1 / Fold change vs veh, BDP1 / RFU, LRRCC1 / Fold change vs veh, LRRCC1 / RFU, ARID1A / Fold change vs veh, ARID1A / RFU, ZNF146 / Fold change vs veh, ZNF146 / RFU, ZNF330 / Fold change vs veh, ZNF330 / RFU, GPN3 / Fold change vs veh, GPN3 / RFU, C9orf123 / Fold change vs veh, C9orf123 / RFU, N4BP2L2 / Fold change vs veh, N4BP2L2 / RFU, ARFIP1 / Fold change vs veh, ARFIP1 / RFU, FAM179B / Fold change vs veh, FAM179B / RFU, BCL10 / Fold change vs veh, BCL10 / RFU, UHRF1BP1L / Fold change vs veh, UHRF1BP1L / RFU, BET1 / Fold change vs veh, BET1 / RFU, CNOT2 / Fold change vs veh, CNOT2 / RFU, ZNF268 / Fold change vs veh, ZNF268 / Fold change vs veh, ZNF507 / RFU, DGCR2 / Fold change vs veh, DGCR2 / RFU, WDSUB1 / Fold change vs veh, WDSUB1 / Fold change vs veh, HSP90B1 /// MIR3652 / RFU, ADSS / Fold change vs veh, ADSS / RFU, GK / Fold change vs veh, GK / RFU, ZNF148 / Fold change vs veh, ZNF148 / RFU, TAF9 / Fold change vs veh, TAF9 / RFU, SLC1A5 / Fold change vs veh, SLC1A5 / RFU, SLMO2 / Fold change vs veh, SLMO2 / RFU, ABCC4 / Fold change vs veh, ABCC4 / RFU, LOC101060439 /// RAP1B / Fold change vs veh, LOC101060439 /// RAP1B / RFU, RFX7 / Fold change vs veh, RFX7 / RFU, GTPBP10 / Fold change vs veh, GTPBP10 / RFU, CNEP1R1 / Fold change vs veh, CNEP1R1 / RFU, BIVM-ERCC5 /// ERCC5 / Fold change vs veh, BIVM-ERCC5 /// ERCC5 / RFU, ILF3 / Fold change vs veh, ILF3 / RFU 11762660_at / Fold change /veh 11762660_at / RFU VCAN (11757783_s_at) / Fold change /veh VCAN (11757783_s_at) / RFU DDX43 (11728927_at) / Fold change /veh DDX43 (11728927_at) / RFU KRT8 (11758188_x_at) / Fold change /veh KRT8 (11758188_x_at) / RFU NKD1 (11759106_at) / Fold change /veh NKD1 (11759106_at) / RFU SRD5A1 (11742802_a_at) / Fold change /veh SRD5A1 (11742802_a_at) / RFU TPSAB1 /// TPSB2 (11721975_s_at) / Fold change /veh TPSAB1 /// TPSB2 (11721975_s_at) / RFU GSTM3 (11746129_a_at) / Fold change /veh GSTM3 (11746129_a_at) / RFU IL23R (11737362_x_at) / Fold change /veh IL23R (11737362_x_at) / RFU TMEM51 (11727254_a_at) / Fold change /veh TMEM51 (11727254_a_at) / RFU PIWIL2 (11732686_x_at) / Fold change /veh PIWIL2 (11732686_x_at) / RFU ORM1 (11744905_x_at) / Fold change /veh ORM1 (11744905_x_at) / RFU CCDC152 (11743942_at) / Fold change /veh CCDC152 (11743942_at) / RFU ECM1 (11717891_a_at) / Fold change /veh ECM1 (11717891_a_at) / RFU IL23R (11748794_a_at) / Fold change /veh IL23R (11748794_a_at) / RFU TNFAIP8L3 (11732012_x_at) / Fold change /veh TNFAIP8L3 (11732012_x_at) / RFU MBOAT4 (11741988_at) / Fold change /veh MBOAT4 (11741988_at) / RFU 11764193_at / Fold change /veh 11764193_at / RFU TMEM53 (11763286_at) / Fold change /veh TMEM53 (11763286_at) / RFU MAGEB2 (11727129_at) / Fold change /veh MAGEB2 (11727129_at) / RFU TMEM200A (11744735_a_at) / Fold change /veh TMEM200A (11744735_a_at) / RFU CCDC152 (11751479_a_at) / Fold change /veh CCDC152 (11751479_a_at) / RFU FAM211A (11726209_a_at) / Fold change /veh FAM211A (11726209_a_at) / RFU RGS16 (11746705_a_at) / Fold change /veh RGS16 (11746705_a_at) / RFU VCAN (11755009_s_at) / Fold change /veh VCAN (11755009_s_at) / RFU RHOB (11743442_s_at) / Fold change /veh RHOB (11743442_s_at) / RFU RGS16 (11720943_a_at) / Fold change /veh RGS16 (11720943_a_at) / RFU RGS16 (11720944_at) / Fold change /veh RGS16 (11720944_at) / RFU, VPS4B / Fold change vs veh, VPS4B / RFU, CREB1 / Fold change vs veh, CREB1 / RFU, DNAJC13 / Fold change vs veh, DNAJC13 / RFU, GNAQ / Fold change vs veh, GNAQ / RFU, CDK5R1 / Fold change vs veh, CDK5R1 / RFU, ZRANB3 / Fold change vs veh, ZRANB3 / RFU, CUL4A / Fold change vs veh, CUL4A / RFU, CCNY / Fold change vs veh, CCNY / RFU, UFL1 / Fold change vs veh, UFL1 / RFU, COG3 / Fold change vs veh, COG3 / RFU, DIAPH2 / Fold change vs veh, DIAPH2 / RFU, SKA2 / Fold change vs veh, SKA2 / RFU, AFF3 / Fold change vs veh, AFF3 / RFU, LMF1 / Fold change vs veh, LMF1 / RFU, IPO11 / Fold change vs veh, IPO11 / RFU, DFFB / Fold change vs veh, DFFB / RFU, FOXP1 / Fold change vs veh, FOXP1 / RFU, CARD8 / Fold change vs veh, CARD8 / RFU, STRN3 / Fold change vs veh, STRN3 / RFU, ADK / Fold change vs veh, ADK / RFU, RASSF2 / Fold change vs veh, RASSF2 / RFU, WIPF1 / Fold change vs veh, WIPF1 / RFU, LARP1B / Fold change vs veh, LARP1B / RFU, RASA1 / Fold change vs veh, RASA1 / RFU, RB1 / Fold change vs veh, RB1 / RFU, PPFIA1 / Fold change vs veh, PPFIA1 / RFU, MAT2A / Fold change vs veh, MAT2A / RFU, CCT5 / Fold change vs veh, CCT5 / RFU, WDR92 / Fold change vs veh, WDR92 / RFU, CUX1 / Fold change vs veh, CUX1 / RFU, TTC7A / Fold change vs veh, TTC7A / RFU, TMEM135 / Fold change vs veh, TMEM135 / RFU, DEPTOR / Fold change vs veh, DEPTOR / RFU, CPM / Fold change vs veh, CPM / RFU, DNAJB6 / Fold change vs veh, DNAJB6 / RFU, CACNA2D3 / Fold change vs veh, CACNA2D3 / RFU, DTX4 / Fold change vs veh, DTX4 / RFU, TFCP2 / Fold change vs veh, TFCP2 / RFU, GMCL1 /// GMCL1P1 / Fold change vs veh, GMCL1 /// GMCL1P1 / RFU, AEBP2 / Fold change vs veh, AEBP2 / RFU, SNHG1 /// SNORD22 /// SNORD25 /// SNORD26 /// SNORD27 /// SNORD28 /// SNORD29 /// SNORD31 / Fold change vs veh, SNHG1 /// SNORD22 /// SNORD25 /// SNORD26 /// SNORD27 /// SNORD28 /// SNORD29 /// SNORD31 / Fold change (Aza/veh), C12orf56 (ProbeSet 11735607_a_at) / Fold change (ACY-1035/veh), C12orf56 (ProbeSet 11735607_a_at) / Fold change (Aza/veh), FGFR1OP (ProbeSet 11751329_s_at) / Fold change (ACY-1035/veh), FGFR1OP (ProbeSet 11751329_s_at) / Fold change (Aza/veh), VPS36 (ProbeSet 11739960_a_at) / Fold change (ACY-1035/veh), VPS36 (ProbeSet 11739960_a_at) / RFU SYPL1 (11715823_x_at) / Fold change /veh SYPL1 (11715823_x_at) / RFU IGFBP7 (11715501_s_at) / Fold change /veh IGFBP7 (11715501_s_at) / RFU REEP3 (11722064_at) / Fold change /veh REEP3 (11722064_at) / RFU IGLL1 (11728026_x_at) / Fold change /veh IGLL1 (11728026_x_at): dose or concentration left out as unconfirmed
# Details: ProbeSet 11725885_a_at; LIST B
smiles,measurement,value
Nc1ccc(-c2cccs2)cc1NC(=O)c1ccc2c(c1)cc(C1CC1)n2CCN1CCOCC1 [ACY-1035],"RFU, CNEP1R1",81.80 RFU
